Data reported in patent US10597388B2, “Pyridazinone herbicides” (FMC CORPORATION, priority 2014, dated 2020).

What was measured:
Test in all cases: Test C greenhouse herbicide test, pre- and postemergence
Assay type in all cases: in vivo
[1] = test system: wheat (winter wheat, Triticum aestivum)
Procedure, shortened: (§1)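 Two application timings: at sowing into a soil/sand blend, and on 2–18 cm seedlings in peat-vermiculite potting mix. A non-phytotoxic, surfactant-containing solvent carried the compounds. Plants were compared with controls and rated visually on 0–100 after 13–15 d.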

[2] = test system: crabgrass, large (large crabgrass, Digitaria sanguinalis)
Procedure, shortened: as §1

corn (Zea mays) = test system: corn (Zea mays)
Procedure, shortened: as §1

soybean (Glycine max) = test system: soybean (Glycine max)
Procedure, shortened: as §1

[3] = test system: ryegrass, Italian (Italian ryegrass, Lolium multiflorum)
Procedure, shortened: as §1

[4] = test system: ragweed (common ragweed, Ambrosia elatior)
Procedure, shortened: as §1

[5] = test system: johnsongrass (Sorghum halepense)
Procedure, shortened: as §1

[6] = test system: velvetleaf (Abutilon theophrasti)
Procedure, shortened: as §1

[7] = test system: pigweed (Amaranthus retroflexus)
Procedure, shortened: as §1

[8] = test system: blackgrass (Alopecurus myosuroides)
Procedure, shortened: as §1

[9] = test system: lambsquarters (Chenopodium album)
Procedure, shortened: as §1

[10] = test system: waterhemp (common waterhemp, Amaranthus rudis)
Procedure, shortened: as §1

[11] = test system: morningglory (Ipomoea coccinea)
Procedure, shortened: as §1

[12] = test system: nutsedge, yellow (yellow nutsedge, Cyperus esculentus)
Procedure, shortened: as §1

[13] = test system: barnyardgrass (Echinochloa crus-galli)
Procedure, shortened: as §1

[14] = Postemergence, 31 g ai/ha, 0 to 100 scale (0 no effect, 100 complete control)
[15] = Postemergence, 125 g ai/ha, scale 0 to 100, 0 is no effect, 100 is complete control
[16] = Postemergence, 250 g ai/ha, scale 0 to 100, 0 no effect, 100 complete control, 13 to 15 d
[17] = Preemergence, 62 g ai/ha, scale 0 to 100, 0 is no effect, 100 is complete control
[18] = Preemergence, 125 g ai/ha, scale 0 to 100, 0 is no effect, 100 is complete control
[19] = Preemergence, 250 g ai/ha, scale 0 to 100, 0 no effect, 100 complete control
[20] = postemergence, 62 g ai/ha, scale 0 to 100, 0 no effect, 100 complete control
[21] = Preemergence, 31 g ai/ha, scale 0 to 100, 0 is no effect, 100 is complete control

## Cn1nc(Br)c(O)c(-c2cccc3ccccc23)c1=O [Compound 20]
[1]; [14]
  Wheat plant response rating: 0
[1]; [15]
  Plant response rating, Wheat: 0
[1]; [16]
  Plant response rating, Wheat: 0
[1]; [17]
  Plant response rating, Wheat: 0
[1]; [18]
  Plant response rating, Wheat: 35
[1]; [19]
  Wheat plant response rating: 30
[1]; [20]
  Wheat plant response rating: 0
[2]; [14]
  Crabgrass, Large plant response rating: 5
[2]; [15]
  Plant response rating, Crabgrass, Large: 10
[2]; [16]
  Plant response rating, Crabgrass, Large: 30
[2]; [21]
  Plant response rating, Crabgrass, Large: 10
[2]; [17]
  Plant response rating, Crabgrass, Large: 15
[2]; [18]
  Plant response rating, Crabgrass, Large: 15
[2]; [19]
  Crabgrass, Large plant response rating: 60
[2]; [20]
  Crabgrass, Large plant response rating: 10
Corn (Zea mays); [14]
  Corn plant response rating: 5
Corn (Zea mays); [15]
  Plant response rating, Corn: 5
Corn (Zea mays); [16]
  Plant response rating, Corn: 10
Corn (Zea mays); [21]
  Plant response rating, Corn: 0
Corn (Zea mays); [17]
  Plant response rating, Corn: 0
Corn (Zea mays); [18]
  Plant response rating, Corn: 5
Corn (Zea mays); [19]
  Corn plant response rating: 35
Corn (Zea mays); [20]
  Corn plant response rating: 5
Soybean (Glycine max); [14]
  Soybean plant response rating: 0
Soybean (Glycine max); [15]
  Plant response rating, Soybean: 35
Soybean (Glycine max); [16]
  Plant response rating, Soybean: 0
Soybean (Glycine max); [17]
  Plant response rating, Soybean: 20
Soybean (Glycine max); [18]
  Plant response rating, Soybean: 30
Soybean (Glycine max); [19]
  Soybean plant response rating: 30
Soybean (Glycine max); [20]
  Soybean plant response rating: 0
[3]; [14]
  Ryegrass, Italian plant response rating: 55
[3]; [15]
  Plant response rating, Ryegrass, Italian: 80
[3]; [16]
  Plant response rating, Ryegrass, Italian: 90
[3]; [21]
  Plant response rating, Ryegrass, Italian: 75
[3]; [17]
  Plant response rating, Ryegrass, Italian: 95
[3]; [18]
  Plant response rating, Ryegrass, Italian: 95
[3]; [19]
  Ryegrass, Italian plant response rating: 95
[3]; [20]
  Ryegrass, Italian plant response rating: 60
[4]; [14]
  Ragweed plant response rating: 80
[4]; [15]
  Plant response rating, Ragweed: 95
[4]; [16]
  Plant response rating, Ragweed: 100
[4]; [21]
  Plant response rating, Ragweed: 35
[4]; [17]
  Plant response rating, Ragweed: 45
[4]; [18]
  Plant response rating, Ragweed: 70
[4]; [19]
  Ragweed plant response rating: 75
[4]; [20]
  Ragweed plant response rating: 85
[5]; [14]
  Johnsongrass plant response rating: 5
[5]; [15]
  Plant response rating, Johnsongrass: 10
[5]; [16]
  Plant response rating, Johnsongrass: 10
[5]; [21]
  Plant response rating, Johnsongrass: 0
[5]; [17]
  Plant response rating, Johnsongrass: 0
[5]; [18]
  Plant response rating, Johnsongrass: 0
[5]; [19]
  Johnsongrass plant response rating: 10
[5]; [20]
  Johnsongrass plant response rating: 10
[6]; [14]
  Velvetleaf plant response rating: 25
[6]; [15]
  Plant response rating, Velvetleaf: 85
[6]; [16]
  Plant response rating, Velvetleaf: 100
[6]; [17]
  Plant response rating, Velvetleaf: 90
[6]; [18]
  Plant response rating, Velvetleaf: 100
[6]; [19]
  Velvetleaf plant response rating: 100
[6]; [20]
  Velvetleaf plant response rating: 25
[7]; [14]
  Pigweed plant response rating: 75
[7]; [15]
  Plant response rating, Pigweed: 98
[7]; [16]
  Plant response rating, Pigweed: 100
[7]; [21]
  Plant response rating, Pigweed: 100
[7]; [17]
  Plant response rating, Pigweed: 100
[7]; [18]
  Plant response rating, Pigweed: 100
[7]; [19]
  Pigweed plant response rating: 100
[7]; [20]
  Pigweed plant response rating: 90
[8]; [14]
  Blackgrass plant response rating: 5
[8]; [15]
  Plant response rating, Blackgrass: 10
[8]; [16]
  Plant response rating, Blackgrass: 45
[8]; [21]
  Plant response rating, Blackgrass: 0
[8]; [17]
  Plant response rating, Blackgrass: 5
[8]; [18]
  Plant response rating, Blackgrass: 40
[8]; [19]
  Blackgrass plant response rating: 80
[8]; [20]
  Blackgrass plant response rating: 10
[9]; [14]
  Lambsquarters plant response rating: 80
[9]; [15]
  Plant response rating, Lambsquarters: 100
[9]; [16]
  Plant response rating, Lambsquarters: 100
[9]; [21]
  Plant response rating, Lambsquarters: 80
[9]; [17]
  Plant response rating, Lambsquarters: 85
[9]; [18]
  Plant response rating, Lambsquarters: 85
[9]; [19]
  Lambsquarters plant response rating: 90
[9]; [20]
  Lambsquarters plant response rating: 85
[10]; [14]
  Waterhemp plant response rating: 70
[10]; [15]
  Plant response rating, Waterhemp: 60
[10]; [16]
  Plant response rating, Waterhemp: 90
[10]; [17]
  Plant response rating, Waterhemp: 100
[10]; [18]
  Plant response rating, Waterhemp: 100
[10]; [19]
  Waterhemp plant response rating: 100
[10]; [20]
  Waterhemp plant response rating: 40
[11]; [14]
  Morningglory plant response rating: 100
[11]; [15]
  Plant response rating, Morningglory: 100
[11]; [16]
  Plant response rating, Morningglory: 100
[11]; [21]
  Plant response rating, Morningglory: 85
[11]; [17]
  Plant response rating, Morningglory: 98
[11]; [18]
  Plant response rating, Morningglory: 98
[11]; [19]
  Morningglory plant response rating: 100
[11]; [20]
  Morningglory plant response rating: 100
[12]; [14]
  Nutsedge, Yellow plant response rating: 45
[12]; [15]
  Plant response rating, Nutsedge, Yellow: 85
[12]; [16]
  Plant response rating, Nutsedge, Yellow: 95
[12]; [21]
  Plant response rating, Nutsedge, Yellow: 80
[12]; [17]
  Plant response rating, Nutsedge, Yellow: 85
[12]; [18]
  Plant response rating, Nutsedge, Yellow: 95
[12]; [19]
  Nutsedge, Yellow plant response rating: 95
[12]; [20]
  Nutsedge, Yellow plant response rating: 65
[13]; [14]
  Barnyardgrass plant response rating: 5
[13]; [15]
  Plant response rating, Barnyardgrass: 30
[13]; [16]
  Plant response rating, Barnyardgrass: 45
[13]; [21]
  Plant response rating, Barnyardgrass: 5
[13]; [17]
  Plant response rating, Barnyardgrass: 30
[13]; [18]
  Plant response rating, Barnyardgrass: 60
[13]; [19]
  Barnyardgrass plant response rating: 85
[13]; [20]
  Barnyardgrass plant response rating: 10
